According to publication PMC4492764, “Evaluation of biomarkers for in vitro prediction of drug-induced nephrotoxicity: comparison of HK-2, immortalized human proximal tubule epithelial, and primary cultures of human proximal tubular cells” (Pharmacology Research & Perspectives, 2015):
Counter-ions that a name gives are not always drawn.

Experiments:
Type in all cases: cell-based, human
HK-2 cells = experiment: Resazurin cytotoxicity assay in HK-2 cells
Method: (§1) For the MTT assay, the medium was then removed, the dried crystals were resuspended in 60 μL of Dimethyl sulfoxide (DMSO), and the absorbance was read at 570 nm. For the resazurin assay, the fluorescence intensity was read using a PolarStar Omega plate reader (BMG Labtech; Mornington VIC, Australia) at excitation/emission 560/590 nm. All assays were performed at least three times. […] La Jolla, CA). Both MTT and resazurin assays were performed three times, with two technical replicates in each assay.

hRPTECs = experiment: Resazurin cytotoxicity assay in hRPTECs
Method: as §1

NGAL mRNA = NGAL mRNA qRT-PCR in HK-2 cells; set-up: key to Upregulation of NGAL HK-2 R: +: statistically significant increase; −: no significant increase; settings: for Upregulation of NGAL HK-2 R: mRNA levels, 72 h time point
Method: HK-2 cells (ATCC CRL-2190; Manassas, VA) were maintained in DMEM/F12 (Life Technologies; Sydney, NSW, Australia) supplemented with 5 μg/mL insulin, 5 μg/mL transferrin, 5 ng/mL sodium selenite (ITS; Roche; […] (passage 2) and culture kits were purchased from Lonza. […] were maintained in Renal Epithelial Cell BulletKitTM (CC-3190, Lonza) at 37°C and 5% CO2 atmosphere. Cells were passaged to 96-well plates with a density of 4000 cells/well. After 24 h culture, compounds with different concentration series were added into each well and incubated for 4, 24, 48, and 72 h. HK-2 and […] were treated with compounds for 4, 24, 48, and 72 h, then the cells were lysed and the RNA reverse transcribed with the TaqMan® Gene Expression Cells-to-CTTM Kit (Life Technologies) according to the manufacturer's instructions. […] Hs00273334_m1), Lcn2 (NGAL; Hs01008571_m1), and Csf1 (M-CSF; Hs00174164_m1). All probes span an exon-exon junction. The real-time quantitative reverse transcription PCR (qRT-PCR) was performed in a 10 μl final reaction mixture using a ViiA 7TM system (Applied Biosystems®, Sydney, NSW, Australia) based on the following thermo cycling conditions: 10 min at 95°C for one cycle, 15 sec at 95°C, 60 sec at 60°C for 40 cycles. The ViiA 7TM software was used for data analysis with Hprt1 expression used for normalization. All assays were performed at least three times, with at least two technical replicates in each assay.

NGAL = NGAL protein ELISA in hRPTECs; set-up: key to Upregulation of NGAL hRPTECs P: +: statistically significant increase; −: no significant increase; settings: for Upregulation of NGAL hRPTECs P: protein levels in culture medium, 72 h time point
Method: HK-2 cells (ATCC CRL-2190; Manassas, VA) were maintained in DMEM/F12 (Life Technologies; Sydney, NSW, Australia) supplemented with 5 μg/mL insulin, 5 μg/mL transferrin, 5 ng/mL sodium selenite (ITS; Roche; […] (passage 2) and culture kits were purchased from Lonza. […] were maintained in Renal Epithelial Cell BulletKitTM (CC-3190, Lonza) at 37°C and 5% CO2 atmosphere. Cells were passaged to 96-well plates with a density of 4000 cells/well. After 24 h culture, compounds with different concentration series were added into each well and incubated for 4, 24, 48, and 72 h. KIM-1 (DY1750), NGAL (DY1757), and M-CSF (DY216) Duo-Set® ELISA kits were purchased from R&D systems (Minneapolis, MN). Sandwich-ELISA experiments were conducted following the manufacturer's instructions with slight modifications. A 96-well microplate (MaxiSorp®, Nunc, Thermo Scientific, NSW, Australia) was coated with 100 μL of capture antibodies (diluted 1:200 in PBS) and incubated overnight. The plate was then washed twice with washing buffer (0.05% Tween 20 in PBS, pH 7.4) and blocked by adding 300 μL of blocking buffer (1% bovine serum albumin (BSA) in PBS) for 1 h at room temperature. After washing two times with PBS, 100 μL of samples (cell culture media or cell lysates) or standards were then added to each well and incubated for 2 h at room temperature. The biotinylated detection antibodies were then diluted in blocking buffer, added to each well and incubated for 2 h. Horseradish peroxidase (HRP)-labeled streptavidin (100 μL) was then added to bind to detection antibodies. To each well, 100 μL of substrate solution (1:1 mixture of H2O2 and tetramethylbenzidine) was added and incubated for 20 min before reaction termination with 50 μL of stop solution (2N H2SO4). The optical density of each well was measured at 450 nm using a POLARstar Omega plate reader (BMG Labtech). All assays were performed at least three times, with at least two technical replicates in each assay.

M-CSF = M-CSF protein ELISA in hRPTECs; set-up: key: +: statistically significant increase; −: no significant increase; settings: protein levels in culture medium; 72 h time point
Method: Sandwich-ELISA experiments were conducted following the manufacturer's instructions with slight modifications. A 96-well microplate (MaxiSorp®, Nunc, Thermo Scientific, NSW, Australia) was coated with 100 μL of capture antibodies (diluted 1:200 in PBS) and incubated overnight. The plate was then washed twice with washing buffer (0.05% Tween 20 in PBS, pH 7.4) and blocked by adding 300 μL of blocking buffer (1% bovine serum albumin (BSA) in PBS) for 1 h at room temperature. After washing two times with PBS, 100 μL of samples (cell culture media or cell lysates) or standards were then added to each well and incubated for 2 h at room temperature. The biotinylated detection antibodies were then diluted in blocking buffer, added to each well and incubated for 2 h. Horseradish peroxidase (HRP)-labeled streptavidin (100 μL) was then added to bind to detection antibodies. To each well, 100 μL of substrate solution (1:1 mixture of H2O2 and tetramethylbenzidine) was added and incubated for 20 min before reaction termination with 50 μL of stop solution (2N H2SO4). The optical density of each well was measured at 450 nm using a POLARstar Omega plate reader (BMG Labtech). All assays were performed at least three times, with at least two technical replicates in each assay.

M-CSF mRNA = M-CSF mRNA qRT-PCR in hRPTECs; set-up: key to Upregulation of M-CSF hRPTECs R: +: statistically significant increase; −: no significant increase; settings: for M-CSF mRNA levels in hRPTECs: 72 h (Fig.4C); for Upregulation of M-CSF hRPTECs R: mRNA levels, 72 h time point
Method: Hs00273334_m1), Lcn2 (NGAL; Hs01008571_m1), and Csf1 (M-CSF; Hs00174164_m1). All probes span an exon-exon junction. The real-time quantitative reverse transcription PCR (qRT-PCR) was performed in a 10 μl final reaction mixture using a ViiA 7TM system (Applied Biosystems®, Sydney, NSW, Australia) based on the following thermo cycling conditions: 10 min at 95°C for one cycle, 15 sec at 95°C, 60 sec at 60°C for 40 cycles. The ViiA 7TM software was used for data analysis with Hprt1 expression used for normalization. All assays were performed at least three times, with at least two technical replicates in each assay.

[1] = 72 h incubation, Mean ± Standard deviation, n = 3
[2] = 72 h, highest concentrations gentamicin 1 mmol/L, CsA 50 μmol/L, cell type not given

Compound | CC50 (HK-2 cells; [1]) | CC50 (hRPTECs; [1]) | Upregulation of NGAL HK-2 R (NGAL mRNA) | NGAL protein upregulation in hRPTECs (NGAL; 4 h, culture medium (Fig. S5C)) | Upregulation of NGAL hRPTECs P (NGAL) | Upregulation of M-CSF hRPTECs P (M-CSF) | M-CSF mRNA levels in hRPTECs (M-CSF mRNA) | Upregulation of M-CSF hRPTECs R (M-CSF mRNA) | toxicity in resazurin assay at highest concentration tested (HK-2 cells; [2]) | toxicity in resazurin assay at highest concentration tested (hRPTECs; [2]) | NGAL mRNA level in HK-2 cells (NGAL mRNA; 72 h exposure, P < 0.01)
Colistin sulfate | > 300 µM | 177 ± 15 µM | − | significant upregulation | + | − | significant results | + |  |  | 
CNC(C)C1CCC(N)C(OC2C(N)CC(N)C(OC3OCC(C)(O)C(NC)C3O)C2O)O1 (stereo not drawn) [Gentamicin, gentamicin sulfate] |  |  | − |  | + |  |  |  | no toxicity | no toxicity | 
N.N.[Cl][Pt][Cl] [Cisplatin, cisplatin] |  |  | + |  | + | + | significant results | + |  |  | clearly increased
